Data as given in patent US11744273B2, “Sweetness enhancing volatile compositions and methods of increasing perceived sweetness of a comestible” (University of Florida Research Foundation, Inc., priority 2016, dated 2023).

Experiments:
Assay type in all cases: in vivo, human
[1] = system: sweetness; test: Blueberry sensory panels; PLS analysis, sweetness (Table 7); settings: multivariate regression analysis
Description: Sensory analysis was conducted similar to described above for tomatoes and strawberries in Examples 1 and 3. […] Panelists were trained with the scaling methods and were encouraged to return for the remainder of the study. Panelists rated overall liking, texture liking, sweetness, sourness, and flavor intensity using hedonic general Labeled Magnitude Scales (gLMS) (−100 to +100; −100=greatest disliking of any kind, +100=greatest liking of any kind) and intensity gLMS (0 to +100; 0=no sensation, 100=most intense sensation of any kind), which allow for improved comparison between panelists and between years (see Bartoshuk, L. M., et al., 2004 and Bartoshuk, L. M., et al., 2005). Panelists were also asked to rate the intensity of taste and flavor sensations of a hypothetical ideal blueberry on this scale. Each panelist received two to four berries of five to six genotypes in a single panel in a Williams design, which was generated by Compusense 5.6 (Compusense Inc., Guelph, Ontario, Canada). They were asked to eat the blueberries of each genotype at once, and to take a bite of cracker and sip of water in between samples. Ratings were recorded using Compusense software.
(§1) Soluble solids content (SSC), titratable acidity (TA), and volatiles were quantified as described above for tomato and strawberries. The volatiles were collected for two hours via dynamic headspace with HaySep Q 80-100 porous polymer adsorbent (Valco Instruments Company Inc., Houston, Tex.) and eluted with methylene chloride and nonyl acetate as an elution standard. Elutions were run on an Agilent 7890A Gas Chromatograph Flame Ionization Detector (GC-FID) DB-5 column (30 m length×250 mm diameter×1 mm film) for quantification and on an Agilent 7890A Gas Chromatograph coupled to an Agilent 5977A Mass Selective Detector (GC/MSD) for qualification (Agilent, Santa Clara, Calif.). Integrated peak area of each signal was normalized for elution, fitted to relative pure chemical response, corrected for sample mass, and expressed as nanograms per gram fresh weight per hour (ng gFW-1 h-1). Response fitting was calculated using the response factor of pure chemical standards (Sigma-Aldrich, St. Louis, Mo.) run on the same instrument.
(§2) Pair-wise correlations and significance between sensory measurements and primary bio-chemical components were calculated, with panelist as a random effect. Least Square Means (LSMeans) of the sensory data for each sample were obtained to account of the random effect of panelist. A partial least squares (PLS) analysis was constructed in JMP1 Pro 10 (SAS Institute Inc., Cary, N.C.) to reveal effectors of sensory ratings (see, e.g., Togari N., et al., 1995; Hough, G., et al., 1996; deKermadec, F., et al., 1997; Toscas, P. J., et al., 1999; and Tenenhaus, M., et al., 2005). The response variables (Y) considered corresponded to LSMeans of overall liking, sweetness, sourness, and blueberry flavor intensity. Glucose, fructose, sucrose, TA, pH, and 52 volatile compounds were considered as explanatory variables (X). The inclusion of texture liking was evaluated independently given that no explanatory physical measure was made for sample texture. […] The model was created without texture for analysis.
• Top six and bottom six biochemical measures explaining sensory responses as determined by partial least squares (PLS) analysis. […]

[2] = system: sweetness; test: Blueberry sensory panels; multiple regression of volatiles against sweetness independent of fructose, glucose and/or sucrose (Table 8); settings: for t Ratio (Fructose): contribution to sweetness independent of fructose; for t Ratio (Glucose): contribution to sweetness independent of glucose; for t Ratio (Sucrose): contribution to sweetness independent of sucrose
Source text: Panelists were trained with the scaling methods and were encouraged to return for the remainder of the study. […] Panelists were also asked to rate the intensity of taste and flavor sensations of a hypothetical ideal blueberry on this scale. Each panelist received two to four berries of five to six genotypes in a single panel in a Williams design, which was generated by Compusense 5.6 (Compusense Inc., Guelph, Ontario, Canada). They were asked to eat the blueberries of each genotype at once, and to take a bite of cracker and sip of water in between samples. Ratings were recorded using Compusense software.
as §1, with “Elutions were run on an Agilent 7890A Gas Chromatograph Flame Ionization Detector (GC-FID) DB-5 column (30 m length×250 mm diameter×1 mm film) for quantification and on an Agilent 7890A Gas Chromatograph coupled to an Agilent 5977A Mass Selective Detector (GC/MSD) for qualification (Agilent, Santa Clara, Calif.).” left out
as §2, with “A partial least squares (PLS) analysis was constructed in JMP1 Pro 10 (SAS Institute Inc., Cary, N.C.) to reveal effectors of sensory ratings (see, e.g., Togari N., et al., 1995; Hough, G., et al., 1996; deKermadec, F., et al., 1997; Toscas, P. J., et al., 1999; and Tenenhaus, M., et al., 2005).” left out

[3] = system: strawberry flavor intensity; test: Strawberry consumer panel; correlation of volatiles with strawberry flavor intensity
Description: Quantification of volatiles in an elution was performed on an Agilent 7890A Series gas chromatograph (GC) (carrier gas; He at 3.99 mL min^−1; splitless injector, temperature 220° C., injection volume 2 μl) equipped with a DB-5 column ((5%-Phenyl)-methylpolysiloxane, 30 m length×250 μm i.d.×1 μm film thickness; Agilent Technologies, Santa Clara, Calif., USA). Oven temperatures programmed from 40° C. (0.5 min hold) at 5° C. min^−1 to 250° C. (4 min hold). Signals captured with a flame ionization detector (FID) at 280° C. Peaks from FID signal were integrated manually with Chemstation B.04.01 software (Agilent Technologies, Santa Clara, Calif.). Volatile emission (ng gFW^−1 h^−1) calculated based on individual peak area relative to sample elution standard peak area. GC-Mass Spectrometry (MS) analysis of elution on an Agilent 6890N GC in tandem with an Agilent 5975 MS (Agilent Technologies, Santa Clara, Calif., USA) and retention time comparison with authentic standards (Sigma Aldrich, St Louis, Mo., USA) for volatile identification (Schmelz, 2001).
All consumer panels were approved by the University of Florida Institutional Review Board. Over the course of two annual seasons 166 strawberry consumers (58 male, 108 female) were recruited to evaluate strawberry cultivars. Ages of panelist ranged from 18 to 71, with a median age of 24. Panelists self-classified themselves as 98 White or Caucasian, 11 Black or African-American, 1 Native American, Alaska Native or Aleutian, 41 Asian/Pacific Islander, and 15 Other. An average of 106 (range of 98-113) panelists evaluated between three and five cultivars per session (Tieman, 2012). Fresh, fully-ripe strawberry fruit was removed from overnight 4° C. dark storage and allowed to warm to room temperature prior to sensory analysis. Each panelist was given one to two whole strawberries for evaluation, depending on cultivar availability. Panelist took a bite of each sample, chewed, and swallowed it. Ratings for overall liking and liking for texture were scaled on hedonic general labeled magnitude scale (gLMS) in the context of all pleasure/displeasure experiences. Perceived intensity of sweetness, sourness, and strawberry flavor were scaled in context of all sensory experiences using sensory gLMS (Bartoshuk, 2003; Bartoshuk, 2005; Tieman, 2012). Scales were employed to mediate valid comparisons across subjects and sessions.
Means and standard errors for consumer, physical, and metabolite measurements were determined from all replicates using JMP (Version 8. SAS Institute Inc., Cary, N.C., 1989-2008). Bivariate analysis among individual measurements of samples allowed for linear fit, which includes summary of fit, analysis of variance, t-test, and correlation analysis for density ellipse. […]

[4] = system: perceived sweetness; test: Tomato taste panel; initial multiple regression of volatiles against perceived sweetness (Table 3); settings: tomato volatiles; multiple regression, contribution to sweetness independent of the measures of sugar
Description: (§3) Fully ripe fruit were harvested, and used for taste panels. A random subset of fruit was used for biochemical analysis. Three biological replicates, each consisting of 2-20 fruit (depending on fruit size), were assayed for each variety. […] Panelists were between the ages of 18 and 78 with a median age of 22. […] An average of 85 (range of 66-95) of these panelists evaluated between 4-6 varieties in a session. All panelists went through a training session to familiarize them with the scaling and procedures. Tomatoes were sliced into wedges (or in halves for grape/cherry types) and each panelist was given two pieces for evaluation. Panelists took a bite of each sample, chewed and swallowed it, and rated overall liking and liking for texture. They then rated the perceived intensities of sweetness, sourness, saltiness, umami sensation, bitterness and overall tomato flavor. They were free to take as many bites as necessary to complete the assessments. They were instructed to take a bite of an unsalted cracker and a sip of water between samples. Samples were presented to the panelists in a randomized order. Hedonic ratings used the hedonic gLMS. This scale assesses the liking for tomatoes in the context of all pleasure/displeasure experiences: 0=neutral, −100=strongest disliking of any kind experienced, and +100=strongest liking of any kind experienced. Sensory intensity ratings used the gLMS (7,8,19). This scale assesses taste and flavor sensations in the context of all sensory experience (7): 0=no sensation, 100=strongest sensation of any kind experienced. Both scales were devised to provide valid comparisons across subjects.
(§4) The 68 chemical compounds measured in this experiment were initially divided into six groups based upon biochemical properties: sugars, branched chain amino acids, lipids, carotenoids, phenolics, and acids. A small number of compounds for which biosynthetic pathways are not established were assigned to one of the six classes based upon their correlations with other classified compounds. All pairwise correlations among the set of 68 compounds were calculated. Correlation coefficients were sorted using Modulated Modularity Clustering (MMC) (9) as a visual aid for identifying compounds that are closely related in this sample. Biochemical groups were examined for compounds within the group that were highly correlated and compounds that were upstream in the relevant metabolic pathways were preferentially selected.
(§5) All analyses were performed in SAS v 9.2.
In conducting the multiple regression analysis on the tomato data set, the independent variables were the sugar content (glucose+fructose), and the flavor (indicated by the retronasal perception of volatiles), while the dependent variable was the perceived sweetness.

[5] = system: perceived sweetness; test: Tomato taste panel; revised partial least squares regression against sweetness independent of fructose or glucose (Table 4); settings: for FRUCTOSE t RATIO: sweetness independent of fructose; for GLUCOSE t RATIO: sweetness independent of glucose
Description: as §3
Biochemical and psychophysical data sets from fruit and fruit taste panels are mathematically probed for relationships using standard least squares and partial least squares regression modeling techniques (SAS JMP Pro 12.0.1 and R version 3.2.4 statistical software packages). The exact regression type is dependent on the structure of the data, i.e. depending on the size and distributions of the overall datasets.

[6] = system: flavor intensity; test: Tomato taste panel; association of compounds with tomato flavor intensity; settings: univariate models
Description: as §3, §4, §5
Due to the large number of chemicals potentially influencing liking, a multivariate analysis of the data was performed. The attributes were initially partitioned into six groups based upon chemical properties and biosynthetic pathways: sugars, branched chain amino acids, fatty acids, carotenoids, phenolics, and acids. […] Groups of structurally related chemicals with known metabolic links were examined for compounds within each module that were highly colinear and compounds that were upstream in relevant metabolic pathways were preferentially selected.

[7] = system: sweetness; test: Orange juice; partial least squares regression of volatiles against sweetness independent of total sugar (Table 9)
Description: Volatile content of orange juice was assessed and analyzed similar to as described above for tomato, strawberry, and blueberry, described above. The process for obtaining volatile samples from orange juice was slightly different than for tomatoes, strawberries and blueberries. […] Briefly, instead of collecting volatiles at room temperature from a fruit mash in headspace of a closed area, the volatiles were elicited by heating the juice to collect volatiles.

Row | SMILES | t Ratio (Fructose) [2] | t Ratio (Glucose) [2] | t Ratio (Sucrose) [2] | t [4] | FRUCTOSE t RATIO [5] | GLUCOSE t RATIO [5] | further results
1 | CCCCCC(C)=O [2-Heptanone] |  |  |  |  |  |  | independent enhancement of perception of sweetness [1]: independently enhancing perception of sweetness
2 | C=CC1(C)CCC(C(C)(C)O)O1 (stereo not shown) [(Z)-linalool oxide (furanoid)] | 1.154 | 1.356 | 1.079 |  |  |  | 
3 | C=C1CC[C@H]2O[C@]2(C)CC[C@@H]2[C@@H]1CC2(C)C [(—)-Caryophyllene oxide] | 1.845 | 1.608 | .982 |  |  |  | 
4 | C=C(C)[C@H]1CC=C(C)CC1 [D-Limonene] | 1.176 | .954 | .609 |  |  |  | 
5 | C=CC(C)(O)CCC=C(C)C (stereo not shown) [Linalool] |  |  |  |  |  |  | correlation with flavor intensity [3]: significant positive correlation with flavor intensity
6 | CC1=C(C=O)C(C)(C)CCC1 [beta-cyclocitral] |  |  |  | 1.186 | 1.905 | 1.688 | 
7 | N[C@@H](CCC(=O)O)C(=O)O [glutamatic acid] |  |  |  |  | −1.746 | −2.953 | 
8 | CC(C)=CCC/C(C)=C\C=O [neral] |  |  |  |  |  |  | independent enhancement of perception of sweetness [1]: independently enhancing perception of sweetness
9 | C/C=C/C(=O)C1=C(C)C=CCC1(C)C [β-damascenone] |  |  |  | 1.012 | 0.138 | 0.678 | association with flavor intensity [6]: not associated with tomato flavor intensity
10 | CC(=O)/C=C/C1=C(C)CCCC1(C)C [β-ionone] |  |  |  | 1.135 | 2.12 | 1.748 | Total Sugar t Ratio [7]: 1.28
